In BindingDB's records for doi:10.1002/cbic.201700052 (University of Illinois, 2017):

Tests used:
Assay in all cases: In Silico Screening
[1] = target: T1, 4-hydroxy-3-methylbut-2-enyl diphosphate reductase (Aquifex aeolicus (strain VF5), UniProt O67625)
T1 sequence (O67625 whole entry): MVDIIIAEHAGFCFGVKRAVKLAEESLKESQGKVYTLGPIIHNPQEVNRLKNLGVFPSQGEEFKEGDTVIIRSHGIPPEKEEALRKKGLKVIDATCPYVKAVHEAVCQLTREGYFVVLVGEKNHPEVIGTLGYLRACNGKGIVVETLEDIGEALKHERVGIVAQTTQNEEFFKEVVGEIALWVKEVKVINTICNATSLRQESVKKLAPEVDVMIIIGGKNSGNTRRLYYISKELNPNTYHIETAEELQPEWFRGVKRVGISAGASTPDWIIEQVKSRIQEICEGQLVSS
Excerpt: (§1) In order to find new inhibitors, we carried out in silico screening of AaIspH and EcIspH using ZINC and National Cancer Institute (NCI) libraries and Glide docking, essentially as previously described.[Lindert et al., Chem. Biol. Drug Des., 81:742-748]

[2] = target: T2, 4-hydroxy-3-methylbut-2-enyl diphosphate reductase (Escherichia coli (strain K12), UniProt P62623)
T2 sequence (P62623 whole entry): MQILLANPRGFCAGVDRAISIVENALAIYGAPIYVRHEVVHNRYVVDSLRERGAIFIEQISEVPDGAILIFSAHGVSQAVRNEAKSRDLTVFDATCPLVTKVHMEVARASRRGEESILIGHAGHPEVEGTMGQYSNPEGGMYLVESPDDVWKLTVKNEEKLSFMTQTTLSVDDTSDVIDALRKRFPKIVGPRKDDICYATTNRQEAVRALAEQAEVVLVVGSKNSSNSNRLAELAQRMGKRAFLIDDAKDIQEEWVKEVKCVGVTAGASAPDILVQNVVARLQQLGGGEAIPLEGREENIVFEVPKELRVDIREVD
Excerpt: as §1

[3] = target: T3, 4-hydroxy-3-methylbut-2-enyl diphosphate reductase (Pseudomonas aeruginosa (strain ATCC 15692 / PAO1 / 1C / PRS 101 / LMG12228), UniProt Q9HVM7)
T3 sequence (Q9HVM7 whole entry): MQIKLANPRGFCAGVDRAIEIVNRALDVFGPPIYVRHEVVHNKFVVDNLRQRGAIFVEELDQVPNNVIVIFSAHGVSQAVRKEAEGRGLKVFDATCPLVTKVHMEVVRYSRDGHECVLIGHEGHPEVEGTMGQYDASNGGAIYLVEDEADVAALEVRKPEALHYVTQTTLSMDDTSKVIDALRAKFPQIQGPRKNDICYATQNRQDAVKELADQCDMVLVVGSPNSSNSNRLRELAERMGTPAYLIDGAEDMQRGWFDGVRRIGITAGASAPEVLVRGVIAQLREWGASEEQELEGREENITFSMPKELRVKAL
Excerpt: as §1

SMILES | Ki [1] | Ki [2] | Ki [3]
Nc1ccc2c(c1)CC1(C(=O)NC(=O)NC1=O)C1CN(Cc3ccccc3)CCN21 (stereo not drawn) [8-Amino-3-benzyl-2,3,4,4 a-tetrahydro-1,2'H,6H-spiro[pyrazino[1,2-a]quinoline-5,5'-pyrimidine]-2',4',6'(1'H,3'H)-trione] | 700 nM | 3 µM | –
CCN1CCN2c3ccc(N)cc3CC3(C(=O)NC(=O)NC3=O)C2C1 (stereo not drawn) [IspH inhibitor, 8] | – | – | 500 nM
